From patent US12264173B2 (GILEAD SCIENCES, INC., priority 2020, dated 2025)

How the values were obtained:
Assay type in all cases: cell-based
[1] = test system: hMPV strain CAN99-81 (gr. A1); test: hMPV A1 EC50 in LLC-MK2 cells; details: read-out: hMPVA1 LLC-MK2 EC50
Experimental: (§1) LLC-MK2 cells were seeded in 24-well plates at 90% confluence in MEM+10% FBS. Plates were washed with PBS and 500 μL of hMPV (strains CAN99-81 (gr. A1), CAN97-83 (gr. A2), CAN97-82 (B1) or CAN98-75 (gr. B2), containing 40 PFU/mL with the different dilutions of the 4 compounds were added on the cells for 1 h 30 min at 37° C., 5% CO2. After the adsorption period, the medium was removed and cells were washed with PBS. An overlay of Opti-MEM 2×+methycellulose 1.6% (1:1) containing the same concentrations of compounds as in the adsorption period was added to the wells. A positive control consisting of ribavirin was also tested with concentrations ranging from 1 μM to 100 μM. The plates were incubated at 37° C., 5% CO2 for 3-5 days. After the incubation period, the cells were fixed with 7% formalin for 1 h at room temperature. hMPV titers were determined using a Mab specific for the F protein (clone hMPV24, ABD Serotec, Inc.) diluted 1/10 000 and a second anti-mouse IgG HRP antibody (GeneScriptCorp) diluted 1/2500. Finally, KPL True Blue was used to reveal infected cells.

[2] = test system: hMPV strain CAN98-75 (gr. B2); test: hMPV B2 EC50 in LLC-MK2 cells; details: read-out: hMPVB2 LLC-MK2 EC50
Experimental: as §1

[3] = test system: hMPV strain CAN97-83 (gr. A2); test: hMPV A2 EC50 in LLC-MK2 cells; details: read-out: hMPVA2 LLC-MK2 EC50
Experimental: as §1

[4] = test system: hMPV strain CAN97-82 (B1); test: hMPV B1 EC50 in LLC-MK2 cells; details: read-out: hMPVB1 LLC-MK2 EC50
Experimental: as §1

Q: What does the source list for COC(=O)[C@H](C)N[P@](=O)(OC[C@@]1(C#N)O[C@@H](c2ccc3c(N)ncnn23)[C@H](OC(=O)C(C)C)[C@@H]1OC(=O)C(C)C)Oc1ccccc1 (single isomer, unassigned) [Example 140]?
A: EC50 [1]: 160 nM; EC50 [2]: 230 nM; EC50 [3]: 190 nM; EC50 [4]: 210 nM
